From US7241803B2, “Compounds for inhibition of HIV infection by blocking HIV entry” (New York Blood Center, priority 2002, dated 2007)
In brackets after ≈: the same amount, converted by molar mass.

Key:
[1] = test system: HIV-1 93TH051 (clade E, X4R5); settings: Primary 93TH051 (clade E, X4R5), PBMCs
Protocol: (§1) Inhibitory activity of compounds on infection by primary HIV-1 isolates was determined as previously described (41). PBMCs were isolated from the blood of healthy donors at the New York Blood Center by standard density gradient centrifugation using Histopaque-1077 (Sigma). The cells were plated in 75 cm^2 plastic flasks and incubated at 37° C. for 2 hrs. The nonadherent cells were collected and resuspended at 5×10^6 in 10 ml RPMI-1640 medium containing 10% FBS, 5 μg/ml PHA and 100 U/ml IL-2 (Sigma), followed by incubation at 37° C. for 3 days. The PHA-stimulated cells were infected with corresponding primary HIV-1 isolates at 0.01 multiplicity of infection (MOI) in the absence or presence of a compound at graded concentrations. Culture media were changed every 3 days. The supernatants were collected 7 days post-infection and tested for p24 antigen by ELISA as described above. The percent inhibition of p24 production and IC50 values were calculated as described above.

[2] = test system: HIV-1 93BR020 (clade F, X4R5); settings: Primary 93BR020 (clade F, X4R5), PBMCs
Protocol: as §1

[3] = test system: HIV-1 RU570 (clade G, R5); settings: Primary RU570 (clade G, R5), PBMCs
Protocol: as §1

[4] = test system: HIV-1 94UG103 (clade A, X4R5); experiment: infection of PBMCs by primary HIV-1 isolate, p24 production; type: cell-based; settings: Primary 94UG103 (clade A, X4R5)
From the text: (§2) Culture media were changed every 3 days.

[5] = test system: HIV-1 92US657 (clade B, R5); experiment: as above; type: cell-based; settings: Primary 92US657 (clade B, R5)
From the text: as §2

[6] = test system: HIV-1 93IN101 (clade C, R5); experiment: as above; type: cell-based; settings: Primary 93IN101 (clade C, R5)
From the text: as §2

[7] = test system: HIV-1 BCF02 (Group O, R5); experiment: as above; type: cell-based
From the text: as §2

[8] = test system: H9/HIV-1IIIB cells cocultured with MT-2 cells; experiment: syncytium-formation assay for screening HIV-1 fusion inhibitors; type: cell-based; settings: single dose 25 μg/ml
From the text: Syncytium-formation assay for screening HIV-1 fusion inhibitors. […] HIV-1 induced syncytium formation was observed under an inverted microscope and scored as “−” (no syncytium was observed), “±” (about 50% syncytia were inhibited), and “+” (no syncytium formation was inhibited). The compounds scored with “−” and “±” were selected for further screening by ELISA for inhibitors against the gp41 six-helix bundle formation.

HIV-1IIIB [9] = experiment: time-of-addition assay; type: cell-based; settings: for time of addition at which HIV replication is inhibited: summary statement
Protocol: (§3) Assessment of anti-HIV-1 infectivity. […] Reactions were terminated by addition of 1N H2SO4.
MT-2 cells were incubated with HIV-1IIIB at 37° C. for 0, 1, 2, 3, 4, 6, and 8 hrs, respectively, before addition of the test compounds at 10 μg/ml. AZT (2.5 μM) was used as a control. After culture for another 2 hrs, the cells were washed to remove the free virus and compounds. The supernatants were collected on day 4 post-infection for measurement of p24 production.

HIV-1 SF2 (clade B, X4) = experiment: infection by laboratory-adapted HIV-1 strain, p24 production; type: cell-based
From the text: as §3

HIV-1IIIB [10] = experiment: inhibition of HIV-1IIIB replication (p24 production) in MT-2 cells; type: cell-based; settings: for IC50: HIV-1IIIB replication, MT-2 cells; for inhibitory activity on HIV-1IIIB replication: concentration up to 80 μg/ml
From the text: as §3

[11] = test system: HIV-1 AZT-R (clade B, X4); settings: Laboratory-adapted AZT-R (clade B, X4)
Protocol: Assessment of anti-HIV-1 infectivity. The inhibitory activity of compounds on infection by laboratory-adapted HIV-1 strains was determined as previously described (18). In brief, 1×10^4 MT-2 cells were infected with HIV-1 at 100 TCID50 (50% tissue culture infective dose) in 200 μl of RPMI 1640 medium containing 10% FBS in the presence or absence of compounds at graded concentrations overnight. For the time-of-addition assay, compounds were added at various time post-infection. Then the culture supernatants were removed and fresh media were added. On the fourth day post-infection, 100 μl of culture supernatants were collected from each well, mixed with equal volumes of 5% Triton X-100 and assayed for p24 antigen, which was quantitated by ELISA (51). Briefly, the wells of polystyrene plates (Immulon 1B, Dynex Technology, Chantilly, Va.) were coated with HIV immunoglobulin (HIVIG), which was prepared from plasma of HIV-seropositive donors with high neutralizing titers against HIV-1IIIB as previously described (44) in 0.085 M carbonate-bicarbonate buffer (pH 9.6) at 4° C. overnight, followed by washes with PBS-T buffer (0.01M PBS containing 0.05% Tween-20) and blocking with PBS containing 1% dry fat-free milk (Bio-Rad Inc., Hercules, Calif.). Virus lysates were added to the wells and incubated at 37° C. for 1 h. […] Absorbance at 450 nm was recorded in an ELISA reader (Ultra 384, Tecan). […]

[12] = target: gp41 six-helix bundle formed by N36 and C34 (Human immunodeficiency virus type 1 group M subtype B, UniProt P04578); settings: for inhibitory activity on gp41 six-helix bundle formation (sandwich ELISA): graded concentrations, up to 80 μg/ml, compound preincubated with N36; for inhibition of six-helix bundle formation between N36 and C34 (screening ELISA): single dose 25 μg/ml
Protocol: ELISA for screening for compounds that inhibit the gp41 six-helix bundle formation. A sandwich ELISA as previously described (23) was used to screen for compounds that inhibit the gp41 six-helix bundle formation. Briefly, peptide N36 (2 μM) was pre-incubated with a test compound at the indicated concentrations at 37° C. for 30 min, followed by addition of C34 (2 μM). In the control experiments, N36 was pre-incubated with C34 at 37° C. for 30 min, followed by addition of the test compound. After incubation at 37° C. for 30 min, the mixture was added to wells of a 96-well polystyrene plate (Costar, Corning Inc., Corning, N.Y.) which were precoated with IgG (2 μg/ml) purified from rabbit antisera directed against the N36/C34 mixture. […] Absorbance at 450 nm was measured using an ELISA reader (Ultra 384, Tecan, Research Triangle Park, N.C.). The percent inhibition by the compounds was calculated as previously described (18) and the concentration for 50% inhibition (IC50) was calculated using the software designated Calcusyn (7), kindly provided by Dr. T. C. Chou (Sloan-Kettering Cancer Center, New York, N.Y.).

[13] = 10 μg/ml added one hour or longer after virus
[14] = 10 μg/ml added to the cells with virus together

Chain of gp41 six-helix bundle formed by N36 and C34 (P04578 546-581): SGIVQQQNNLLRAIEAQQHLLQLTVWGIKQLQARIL

| SMILES | IC50 (μg/ml) for inhibition of p24 production [1] | IC50 (μg/ml) for inhibition of p24 production [2] | IC50 (μg/ml) for inhibition of p24 production [3] | IC50 (μg/ml) for inhibition of p24 production [4] | IC50 (μg/ml) for inhibition of p24 production [5] | IC50 (μg/ml) for inhibition of p24 production [6] | IC50 (μg/ml) for inhibition of p24 production [7] | inhibition of HIV-1 mediated syncytium formation [8] | inhibition of HIV-1 replication, time of addition (HIV-1IIIB [9]; [13]) | inhibition of HIV-1 replication, time of addition (HIV-1IIIB [9]; [14]) | time of addition at which HIV replication is inhibited (HIV-1IIIB [9]) | IC50 (μg/ml) for inhibition of p24 production (HIV-1 SF2 (clade B, X4)) | IC50 (HIV-1IIIB [10]) | inhibitory activity on HIV-1IIIB replication (HIV-1IIIB [10]) | IC50 (μg/ml) for inhibition of p24 production [11] | inhibitory activity on gp41 six-helix bundle formation (sandwich ELISA) [12] | inhibition of six-helix bundle formation between N36 and C34 (screening ELISA) [12] |
| --- | --- | --- | --- | --- | --- | --- | --- | --- | --- | --- | --- | --- | --- | --- | --- | --- | --- |
| Cc1ccc(C)n1-c1ccc(C(=O)O)c(O)c1 [NB-2] | 1.15 ± 0.14 µg/mL | 2.50 ± 0.01 µg/mL | 23.12 ± 1.23 µg/mL | 5.92 ± 0.06 µg/mL | 10.41 ± 1.88 µg/mL | 1.05 ± 0.23 µg/mL | 0.21 ± 0.12 µg/mL | significantly inhibited | no inhibitory activity | inhibited HIV-1 replication | only when they were added to the cells less than two hours after virus addition | 0.44 ± 0.03 µg/mL | 0.24 ± 0.05 µg/mL (≈ 1.04 µM) | significantly inhibited | 1.41 ± 0.03 µg/mL | significantly inhibited | significantly inhibited |
| O=C(O)c1cc(-n2cccc2)ccc1Cl [NB-64] | 5.24 ± 1.80 µg/mL | 1.05 ± 0.18 µg/mL | 8.81 ± 0.24 µg/mL | 7.94 ± 0.96 µg/mL | 6.60 ± 1.80 µg/mL | 4.38 ± 0.19 µg/mL | 1.31 ± 0.90 µg/mL | significantly inhibited | no inhibitory activity | inhibited HIV-1 replication | only when they were added to the cells less than two hours after virus addition | 1.34 ± 0.06 µg/mL | 0.49 ± 0.09 µg/mL (≈ 2.21 µM) | significantly inhibited | 6.25 ± 0.25 µg/mL | significantly inhibited | significantly inhibited |
